Results reported in PubChem BioAssay (NCI).
Values joined by “and” are separate entries in the source; they are usually repeats but may differ in a detail not shown here. Identical values can stand only once.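 Results reflect a 48-hour exposure of cells in 96-well plates to compound at five concentrations. Abbreviation: GI50, concentration required for 50% inhibition of growth. Definition used: TGI = concentration required for complete inhibition of growth.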

How the values were obtained:
Test in all cases: NCI anticancer screen, dose series, 48 h
SF-539 CNS = test system: SF-539 CNS
SNB-19 CNS = test system: SNB-19 CNS
M14 melanoma = test system: M14 melanoma
MALME-3M melanoma = test system: MALME-3M melanoma
OVCAR-8 ovarian = test system: OVCAR-8 ovarian
SNB-78 CNS = test system: SNB-78 CNS
HCT-15 colon = test system: HCT-15 colon
A498 renal = test system: A498 renal
SNB-75 CNS = test system: SNB-75 CNS
M19-MEL melanoma = test system: M19-MEL melanoma
OVCAR-3 ovarian = test system: OVCAR-3 ovarian
IGROV1 ovarian = test system: IGROV1 ovarian
786-0 renal = test system: 786-0 renal
RPMI-8226 leukemia = test system: RPMI-8226 leukemia
SK-MEL-5 melanoma = test system: SK-MEL-5 melanoma
HCT-116 colon = test system: HCT-116 colon
MOLT-4 leukemia = test system: MOLT-4 leukemia
U251 CNS = test system: U251 CNS
SN12C renal = test system: SN12C renal
SF-268 CNS = test system: SF-268 CNS
DLD-1 colon = test system: DLD-1 colon
DMS 273 small cell lung = test system: DMS 273 small cell lung
CCRF-CEM leukemia = test system: CCRF-CEM leukemia
ACHN renal = test system: ACHN renal
NCI-H460 lung = test system: NCI-H460 lung
DMS 114 small cell lung = test system: DMS 114 small cell lung
HCC-2998 colon = test system: HCC-2998 colon
SF-295 CNS = test system: SF-295 CNS
NCI-H522 lung = test system: NCI-H522 lung
LXFL 529 NSCLC = test system: LXFL 529 NSCLC
A549 NSCLC = test system: A549 NSCLC
HOP-62 NSCLC = test system: HOP-62 NSCLC
EKVX NSCLC = test system: EKVX NSCLC
KM12 colon = test system: KM12 colon
HL-60(TB) leukemia = test system: HL-60(TB) leukemia
NCI-H226 lung = test system: NCI-H226 lung
SR leukemia = test system: SR leukemia
SK-MEL-2 melanoma = test system: SK-MEL-2 melanoma
RXF-631 renal = test system: RXF-631 renal
UACC-257 melanoma = test system: UACC-257 melanoma
LOX IMVI melanoma = test system: LOX IMVI melanoma
NCI-H23 lung = test system: NCI-H23 lung
SW-620 colon = test system: SW-620 colon
CAKI-1 renal = test system: CAKI-1 renal
HT29 colon = test system: HT29 colon
K-562 leukemia = test system: K-562 leukemia
SK-MEL-28 melanoma = test system: SK-MEL-28 melanoma
UO-31 renal = test system: UO-31 renal
UACC-62 melanoma = test system: UACC-62 melanoma
KM20L2 colon = test system: KM20L2 colon
DU-145 prostate = test system: DU-145 prostate
NCI/ADR-RES ovarian = test system: NCI/ADR-RES ovarian
TK-10 renal = test system: TK-10 renal
RXF 393 renal = test system: RXF 393 renal
PC-3 prostate = test system: PC-3 prostate
HS 578T breast = test system: HS 578T breast
MCF7 breast = test system: MCF7 breast
OVCAR-5 ovarian = test system: OVCAR-5 ovarian
OVCAR-4 ovarian = test system: OVCAR-4 ovarian
T-47D breast = test system: T-47D breast
XF 498 CNS = test system: XF 498 CNS
MDA-MB-435 = test system: MDA-MB-435
HOP-92 NSCLC = test system: HOP-92 NSCLC
MDA-MB-231 breast = test system: MDA-MB-231 breast
SK-OV-3 ovarian = test system: SK-OV-3 ovarian
BT-549 breast = test system: BT-549 breast
COLO 205 colon = test system: COLO 205 colon
HOP-18 NSCLC = test system: HOP-18 NSCLC

C/C(=N\O)c1sc(-n2nc(-c3ccccc3)cc2-c2ccccc2)nc1C
TGI (SF-539 CNS): 16.7 µM | TGI (SNB-19 CNS): 17.9 µM | TGI (M14 melanoma): 18.3 µM | TGI (MALME-3M melanoma): 31 µM | TGI (OVCAR-8 ovarian): 18.1 µM | TGI (SNB-78 CNS): > 100 µM | TGI (HCT-15 colon): 22.9 µM | TGI (A498 renal): > 31.6 µM | TGI (SNB-75 CNS): > 31.6 µM | TGI (M19-MEL melanoma): 20.8 µM | TGI (OVCAR-3 ovarian): > 31.6 µM | TGI (IGROV1 ovarian): 22 µM | TGI (786-0 renal): 15.8 µM | TGI (RPMI-8226 leukemia): 23.6 µM | TGI (SK-MEL-5 melanoma): 17.3 µM | TGI (HCT-116 colon): 17.1 µM | TGI (MOLT-4 leukemia): 25.5 µM | TGI (U251 CNS): 16.3 µM | TGI (SN12C renal): 15.4 µM | TGI (SF-268 CNS): 19.8 µM | TGI (DLD-1 colon): 20.1 µM | TGI (DMS 273 small cell lung): 49.6 µM | TGI (CCRF-CEM leukemia): 25.6 µM | TGI (ACHN renal): 19.6 µM | TGI (NCI-H460 lung): 21.6 µM | TGI (DMS 114 small cell lung): 22.8 µM | TGI (HCC-2998 colon): 18.2 µM | TGI (SF-295 CNS): 20.2 µM | TGI (NCI-H522 lung): 17 µM | TGI (LXFL 529 NSCLC): 16.3 µM | TGI (A549 NSCLC): 25.3 µM | TGI (HOP-62 NSCLC): 22.2 µM | TGI (EKVX NSCLC): > 31.6 µM | TGI (KM12 colon): 17.3 µM | TGI (HL-60(TB) leukemia): 23 µM | TGI (NCI-H226 lung): 17.6 µM | TGI (SR leukemia): 28.6 µM | TGI (SK-MEL-2 melanoma): > 65.6 µM | TGI (RXF-631 renal): > 31.6 µM | TGI (UACC-257 melanoma): 21.3 µM | TGI (LOX IMVI melanoma): 18 µM | TGI (NCI-H23 lung): 15.1 µM | TGI (SW-620 colon): 19.6 µM | TGI (CAKI-1 renal): 27.3 µM | TGI (HT29 colon): 19 µM | TGI (K-562 leukemia): 24.6 µM | TGI (SK-MEL-28 melanoma): 17.8 µM | TGI (UO-31 renal): 15.3 µM | TGI (UACC-62 melanoma): 16.9 µM | TGI (KM20L2 colon): 16.1 µM

NC1=NC(=O)N2CC12 (stereo not given)
TGI (SF-539 CNS): > 100 µM and 206 µM | GI50 (SNB-19 CNS): 516 µM | TGI (SNB-19 CNS): > 100 µM and 1120 µM | TGI (M14 melanoma): > 100 µM and 273 µM | GI50 (MALME-3M melanoma): 57.8 µM and 79.7 µM | TGI (MALME-3M melanoma): > 100 µM and 202 µM | GI50 (OVCAR-8 ovarian): 141 µM | TGI (OVCAR-8 ovarian): > 100 µM and 5000 µM | GI50 (HCT-15 colon): 301 µM | TGI (HCT-15 colon): > 100 µM and 1140 µM | GI50 (A498 renal): 228 µM | TGI (A498 renal): > 100 µM and 875 µM | GI50 (DU-145 prostate): 240 µM | TGI (DU-145 prostate): 851 µM | GI50 (SNB-75 CNS): 240 µM | TGI (SNB-75 CNS): > 100 µM and 822 µM | GI50 (OVCAR-3 ovarian): 171 µM | TGI (OVCAR-3 ovarian): > 100 µM and 519 µM | GI50 (IGROV1 ovarian): 86.8 µM and 261 µM | TGI (IGROV1 ovarian): > 100 µM and 1100 µM | GI50 (786-0 renal): 160 µM | TGI (786-0 renal): > 100 µM and 506 µM | TGI (RPMI-8226 leukemia): > 100 µM and 22 µM and 218 µM | GI50 (SK-MEL-5 melanoma): 638 µM | TGI (SK-MEL-5 melanoma): > 100 µM and 1450 µM | GI50 (HCT-116 colon): 73.9 µM | TGI (HCT-116 colon): 166 µM | GI50 (MOLT-4 leukemia): 53.3 µM | TGI (MOLT-4 leukemia): > 100 µM and 185 µM | GI50 (U251 CNS): 154 µM | TGI (U251 CNS): > 100 µM and 620 µM | TGI (SN12C renal): > 100 µM and 349 µM | TGI (SF-268 CNS): > 100 µM and 209 µM | TGI (DLD-1 colon): > 100 µM | TGI (DMS 273 small cell lung): > 100 µM | GI50 (CCRF-CEM leukemia): 17.3 µM and 14.3 µM | TGI (CCRF-CEM leukemia): > 100 µM and 58.9 µM and 89.8 µM | GI50 (ACHN renal): 347 µM | TGI (ACHN renal): > 100 µM and 1020 µM | GI50 (NCI-H460 lung): 182 µM | TGI (NCI-H460 lung): > 100 µM and 866 µM | TGI (DMS 114 small cell lung): > 100 µM | GI50 (NCI/ADR-RES ovarian): 168 µM | TGI (NCI/ADR-RES ovarian): 660 µM | GI50 (HCC-2998 colon): 520 µM | TGI (HCC-2998 colon): > 100 µM and 1250 µM | GI50 (SF-295 CNS): 68.6 µM and 73.1 µM | TGI (SF-295 CNS): > 100 µM and 219 µM | GI50 (TK-10 renal): 65.1 µM and 144 µM | TGI (TK-10 renal): > 100 µM and 389 µM | GI50 (NCI-H522 lung): 116 µM | TGI (NCI-H522 lung): > 100 µM and 367 µM | TGI (RXF 393 renal): > 100 µM and 334 µM | TGI (LXFL 529 NSCLC): > 100 µM | GI50 (A549 NSCLC): 890 µM | TGI (A549 NSCLC): > 100 µM and 3450 µM | GI50 (HOP-62 NSCLC): 570 µM | TGI (HOP-62 NSCLC): > 100 µM and 1250 µM | GI50 (PC-3 prostate): 86.1 µM and 321 µM | TGI (PC-3 prostate): 1130 µM | GI50 (EKVX NSCLC): 123 µM | TGI (EKVX NSCLC): > 100 µM and 603 µM | GI50 (KM12 colon): 436 µM | TGI (KM12 colon): > 100 µM and 1070 µM | GI50 (HS 578T breast): 316 µM | TGI (HS 578T breast): 1720 µM | GI50 (HL-60(TB) leukemia): 13.7 µM | GI50 (NCI-H226 lung): 184 µM | TGI (NCI-H226 lung): > 100 µM and 896 µM | GI50 (MCF7 breast): 137 µM | TGI (MCF7 breast): 768 µM | GI50 (OVCAR-5 ovarian): 170 µM | TGI (OVCAR-5 ovarian): 528 µM | GI50 (OVCAR-4 ovarian): 198 µM | TGI (OVCAR-4 ovarian): > 100 µM and 779 µM | GI50 (SR leukemia): 10.8 µM and 14.6 µM | TGI (SR leukemia): > 100 µM and 34.8 µM and 73.9 µM | GI50 (T-47D breast): 26.7 µM and 54.5 µM | TGI (T-47D breast): 316 µM | GI50 (SK-MEL-2 melanoma): 63.3 µM | TGI (SK-MEL-2 melanoma): > 100 µM and 329 µM | GI50 (UACC-257 melanoma): 66.6 µM and 85 µM | TGI (UACC-257 melanoma): > 100 µM and 245 µM | TGI (XF 498 CNS): > 100 µM | GI50 (LOX IMVI melanoma): 38.2 µM and 61.2 µM | TGI (LOX IMVI melanoma): > 100 µM and 134 µM | GI50 (MDA-MB-435): 90.9 µM and 78 µM | TGI (MDA-MB-435): 194 µM | GI50 (NCI-H23 lung): 737 µM | TGI (NCI-H23 lung): > 100 µM and 2640 µM | GI50 (SW-620 colon): 48.2 µM and 58.4 µM | TGI (SW-620 colon): > 100 µM and 143 µM | GI50 (HOP-92 NSCLC): 70.8 µM | TGI (HOP-92 NSCLC): > 100 µM and 173 µM | GI50 (MDA-MB-231 breast): 107 µM | TGI (MDA-MB-231 breast): 244 µM | GI50 (CAKI-1 renal): 35.1 µM | TGI (CAKI-1 renal): > 100 µM and 118 µM | GI50 (HT29 colon): 400 µM | TGI (HT29 colon): > 100 µM and 3130 µM | GI50 (SK-OV-3 ovarian): 369 µM | TGI (SK-OV-3 ovarian): > 100 µM and 991 µM | GI50 (K-562 leukemia): 38.9 µM | TGI (K-562 leukemia): > 100 µM | TGI (SK-MEL-28 melanoma): > 100 µM and 196 µM | GI50 (UO-31 renal): 163 µM | TGI (UO-31 renal): > 100 µM and 605 µM | GI50 (UACC-62 melanoma): 130 µM | TGI (UACC-62 melanoma): > 100 µM and 408 µM | GI50 (BT-549 breast): 47.9 µM and 62.6 µM | TGI (BT-549 breast): 166 µM | GI50 (COLO 205 colon): 278 µM | TGI (COLO 205 colon): > 100 µM and 929 µM | TGI (KM20L2 colon): > 100 µM | TGI (HOP-18 NSCLC): > 100 µM
